Source: ChEMBL document CHEMBL5523757, “Discovery, Synthesis, and Activity Evaluation of Novel Five-Membered Sulfur-Containing Heterocyclic Nucleosides as Potential Anticancer Agents In Vitro and In Vivo” (J Med Chem, 2024)
Calls of active or inactive are those of the source. The rule behind the calls is not given here.

What was measured:
[1] = tested on: HeLa; experiment: Antitumor activity against human HeLa cells xenografted in BALB/c mouse assessed as reduction in tumor weight at 15 to 60 mg/kg,ip once daily for 14 days; assay type: functional, organism-based; details: dose 15-60 mg/kg, time 14.0 day
[2] = tested on: HeLa; experiment: Induction of autophagy in human HeLa cells with siRNA-mediated RPS6 knockdown assessed as downregulation of SQSTM1/p62 expression at 4 uM incubated for 48 hrs by Western blot analysis; assay type: functional, cell-based
[3] = tested on: HeLa; experiment: Inhibition of colony formation in human HeLa cells at 2 to 8 uM incubated for 2 weeks by crystal violet staining based microscopic analysis; assay type: functional, cell-based; details: dose 2-8 µM
[4] = tested on: HeLa; experiment: Induction of apoptosis in human HeLa cells assessed as upregulation of cleaved PARP expression incubated for 48 hrs by Western blot analysis; assay type: functional, cell-based
[5] = target: Small ribosomal subunit protein eS6 (Homo sapiens) (UniProt P62753); experiment: Binding affinity to RPS6 in human HeLa cells assessed as increase in protein abundance in presence of pronase by DARTS assay; assay type: cell-based
[6] = target: Small ribosomal subunit protein eS6 (Homo sapiens) (UniProt P62753); experiment: Binding affinity to RPS6 in human HeLa cells assessed as stabilization of protein at 100 uM at 70 degreeC by cellular thermal shift assay; assay type: cell-based
[7] = tested on: HeLa; experiment: Induction of autophagy in human HeLa cells assessed as upregulation of LC3 expression at 2 to 8 uM incubated for 48 hrs by Western blot analysis; assay type: functional, cell-based; details: dose 2-8 µM
[8] = tested on: HeLa; experiment: Inhibition of cell invasion in human HeLa cells at 2 to 8 uM incubated for 48 hrs by crystal violet staining based transwell invasion assay; assay type: functional; details: dose 2-8 µM
[9] = target: Small ribosomal subunit protein eS6 (Homo sapiens) (UniProt P62753); experiment: Inhibition of RPS6 in human HeLa cells assessed as downregulation of RPS6 expression at 2 to 8 uM incubated for 48 hrs by Western blot analysis; assay type: cell-based; details: dose 2-8 µM
[10] = tested on: HeLa; experiment: Induction of autophagy in human HeLa cells assessed as downregulation of AKT expression at 2 to 8 uM incubated for 48 hrs by Western blot analysis; assay type: functional, cell-based; details: dose 2-8 µM
[11] = tested on: HeLa; experiment: Induction of cell cycle arrest in human HeLa cells at 2 to 8 uM; assay type: functional, cell-based; details: dose 2-8 µM
[12] = tested on: Cell membrane; experiment: Disruption of mitochondrial membrane in human HeLa cells assessed as decrease in fluorescence intensity at 2 to 8 uM incubated for 48 hrs by mito-tracker green dye based fluorescence microscopic analysis; assay type: cell membranes; details: dose 2-8 µM
[13] = tested on: HeLa; experiment: Induction of apoptosis in human HeLa cells assessed as upregulation of Bax expression incubated for 48 hrs by Western blot analysis; assay type: functional, cell-based
[14] = tested on: HeLa; experiment: Induction of autophagy in human HeLa cells assessed as downregulation of mTOR phosphorylation at 2 to 8 uM incubated for 48 hrs by Western blot analysis; assay type: functional, cell-based; details: dose 2-8 µM
[15] = tested on: HeLa; experiment: Induction of autophagy in human HeLa cells assessed as downregulation of SQSTM1/p62 expression at 2 to 8 uM incubated for 48 hrs by Western blot analysis; assay type: functional, cell-based; details: dose 2-8 µM
[16] = tested on: Cell membrane; experiment: Disruption of lysosomal membrane in human HeLa cells assessed as decrease in fluorescence intensity at 2 to 8 uM incubated for 48 hrs by lyso-tracker red dye based fluorescence microscopic analysis; assay type: cell membranes; details: dose 2-8 µM
[17] = tested on: Cell membrane; experiment: Induction of mitochondrial membrane potential loss in human HeLa cells assessed as decrease in red fluorescence at 2 to 8 uM incubated for 48 hrs by JC-1 staining based flow cytometry; details: dose 2-8 µM
[18] = tested on: HeLa; experiment: Induction of autophagy in human HeLa cells assessed as downregulation of mTOR expression at 2 to 8 uM incubated for 48 hrs by Western blot analysis; assay type: functional, cell-based; details: dose 2-8 µM
[19] = tested on: HeLa; experiment: Induction of autophagy in human HeLa cells assessed as upregulation of Beclin-1 expression at 2 to 8 uM incubated for 48 hrs by Western blot analysis; assay type: functional, cell-based; details: dose 2-8 µM
[20] = tested on: HeLa; experiment: Induction of autophagy in human HeLa cells with siRNA-mediated RPS6 knockdown assessed as upregulation of LC3 expression at 4 uM incubated for 48 hrs by Western blot analysis; assay type: functional, cell-based
[21] = tested on: Cell membrane; experiment: Induction of mitochondrial membrane potential loss in human HeLa cells assessed as increase in green fluorescence at 2 to 8 uM incubated for 48 hrs by JC-1 staining based flow cytometry; details: dose 2-8 µM
[22] = tested on: HeLa; experiment: Induction of autophagy in human HeLa cells with siRNA-mediated RPS6 knockdown assessed as upregulation of Beclin-1 expression at 4 uM incubated for 48 hrs by Western blot analysis; assay type: functional, cell-based
[23] = tested on: HeLa; experiment: Induction of autophagy in human HeLa cells assessed as downregulation of AKT phosphorylation at 2 to 8 uM incubated for 48 hrs by Western blot analysis; assay type: functional, cell-based; details: dose 2-8 µM
[24] = tested on: HeLa; experiment: Induction of endoplasmic reticulum (ER) stress in human HeLa cells assessed as increase in red fluorescence intensity at 2 to 8 uM incubated for 48 hrs by ER-tracker red dye based fluorescence microscopic analysis; assay type: functional, cell-based; details: dose 2-8 µM
[25] = tested on: HeLa; experiment: Antitumor activity against human HeLa cells xenografted in BALB/c mouse assessed as reduction in tumor volume at 15 to 60 mg/kg,ip once daily for 14 days; assay type: functional, organism-based; details: dose 15-60 mg/kg, time 14.0 day
[26] = tested on: HeLa; experiment: Induction of autophagy in human HeLa cells assessed as increase in number of autophagosomes incubated for 48 hrs by transmission electron microscopic analysis; assay type: functional, cell-based
[27] = tested on: HeLa; experiment: Induction of autophagy in human HeLa cells assessed as upregulation of Beclin-1 expression incubated for 48 hrs by immunofluorescence assay; assay type: functional, cell-based
[28] = tested on: HeLa; experiment: Induction of autophagy in human HeLa cells assessed as downregulation of PI3K expression at 2 to 8 uM incubated for 48 hrs by Western blot analysis; assay type: functional, cell-based; details: dose 2-8 µM
[29] = tested on: HeLa; experiment: Induction of apoptosis in human HeLa cells assessed as upregulation of p53 expression incubated for 48 hrs by Western blot analysis; assay type: functional, cell-based
[30] = tested on: HeLa; experiment: Antitumor activity against human HeLa cells xenografted in BALB/c mouse assessed as necrotic cells in tumor at 15 to 60 mg/kg,ip once daily for 14 days; assay type: functional, organism-based; details: dose 15-60 mg/kg, time 14.0 day
[31] = target: Small ribosomal subunit protein eS6 (Homo sapiens) (UniProt P62753); experiment: Inhibition of RPS6 in human HeLa cells assessed as downregulation of RPS6 phosphorylation at 2 to 8 uM incubated for 48 hrs by Western blot analysis; assay type: cell-based; details: dose 2-8 µM
[32] = tested on: HeLa; experiment: Induction of autophagy in human HeLa cells assessed as increase in number of MDC-positive cells incubated for 48 hrs by MDC staining based fluorescence microscopic analysis; assay type: functional, cell-based
[33] = tested on: HeLa; experiment: Induction of autophagy in human HeLa cells assessed as downregulation of PI3K phosphorylation at 2 to 8 uM incubated for 48 hrs by Western blot analysis; assay type: functional, cell-based; details: dose 2-8 µM
[34] = tested on: HeLa; experiment: Inhibition of cell migration in human HeLa cells incubated for 48 hrs by scratch wound healing assay; assay type: functional, cell-based
[35] = tested on: HeLa; experiment: Induction of autophagy in human HeLa cells assessed as upregulation of LC3 expression incubated for 48 hrs by immunofluorescence assay; assay type: functional, cell-based
[36] = tested on: HeLa; experiment: Induction of apoptosis in human HeLa cells assessed as upregulation of cleaved caspase-3 expression incubated for 48 hrs by Western blot analysis; assay type: functional, cell-based

SMILES: CCOC(=O)C[C@H]1CSC[C@]1(C(=O)OCC)n1cnc2c(Cl)nc(Cl)nc21 (racemic)
- Activity [1]: Active
- Activity [2]: Active
- inhibition [3]: Active
- Activity [4]: Dose-Dependent Effect
- Activity [5]: Active
- Activity [6]: Active
- Activity [7]: Active
- inhibition [8]: Active
- inhibition [9]: Active
- Activity [10]: Active
- Activity [11]: inactive
- Activity [12]: Active
- Activity [13]: Dose-Dependent Effect
- Activity [14]: Active
- Activity [15]: Active
- Activity [16]: Active
- Activity [17]: Active
- Activity [18]: Active
- Activity [19]: Active
- Activity [20]: Active
- Activity [21]: Active
- Activity [22]: Active
- Activity [23]: Active
- Activity [24]: Active
- Activity [25]: Active
- Activity [26]: Dose-Dependent Effect
- Activity [27]: Active
- Activity [28]: Active
- Activity [29]: Dose-Dependent Effect
- Activity [30]: Active
- inhibition [31]: Active
- Activity [32]: Dose-Dependent Effect
- Activity [33]: Active
- inhibition [34]: Dose-Dependent Effect
- Activity [35]: Active
- Activity [36]: Dose-Dependent Effect
